From US20230061116A1, “TARGETING PAR1 AND PAR2 TO REGULATE LIPID AND CHOLESTEROL ABUNDANCE” (Mayo Foundation for Medical Education and Research, priority 2020, published 2023)

What was measured:
[1] = test system: HMGCS1; assay: HMGCS1 expression in primary cortical neurons (real-time quantitative PCR); format: cell-based, murine
Experimental: FIG. 3 is a graph plotting HMGCS1 expression in cultures of primary cortical neurons treated with the PAR1 small molecule inhibitor Vorapaxar (100 nM) or vehicle control for 72 hours.
Expression of HMGCS1, an enzyme responsible for production of HMGCoA for the rate-limiting step in cholesterol biosynthesis, was quantified by real-time quantitative PCR.
HMGCS1 is responsible for production of HMGCoA for the rate-limiting step in cholesterol biosynthesis.

[2] = test system: primary mouse cortical neurons; assay: Neurite outgrowth (TUJ1+ area) in primary cortical neurons; format: cell-based; conditions: co-treatment with subtherapeutic BDNF; 24 and 72 hours of treatment (FIG. 12)
Experimental: FIG. 12 contains a series of images showing that inhibition of PAR1 signaling accelerates neurite outgrowth in primary mouse cortical neurons. Murine neurons were cultured for 24 hours before addition of the PAR1 inhibitor Vorapaxar, subtherapeutic growth factor BDNF, or both. […] Neurite outgrowth was quantified by staining for TUJI (a cytoskeletal protein present in both axons and dendrites) and measuring TUJI+ area (the average of 5 randomly selected fields per well, 6 wells per treatment). Production of lipids and cholesterol, major constituents of neuronal membranes, was required to grow both axons and dendrites. Results are plotted in the graphs in the right panel (*P<0,05 SNK, n=6 all groups, both timepoints). […] Murine neurons were cultured for 24 hours before addition of the PAR1 inhibitor Vorapaxar, subtherapeutic growth factor BDNF, or both. […] Neurite outgrowth was quantified by staining for TUJ1 (a cytoskeletal protein present in both axons and dendrites) and measuring TUJ1+ area (the average of 5 randomly selected fields per well, 6 wells per treatment). Production of lipids and cholesterol, major constituents of neuronal membranes, was required to grow both axons and dendrites.

[3] = test system: primary mouse cortical neurons; assay: Synaptogenesis (Homer puncta per TUJ1+ area) in primary cortical neurons; format: cell-based; conditions: co-treatment with subtherapeutic BDNF; 24 and 72 hours of treatment (FIG. 13)
Experimental: FIG. 13 contains images showing that inhibition of PAR1 signaling accelerates synaptogenesis in primary mouse cortical neurons. Murine neurons were cultured in vitro for 24 hours before addition of the PAR1 inhibitor Vorapaxar, subtherapeutic growth factor BDNF, Or both. […] Synapse density was quantified by staining for Homer, a scaffold protein concentrated at the post-synaptic densities by counting puncta in ImageJ. Synapse counts were normalized by total neurite area (TUJ1+ area) to determine the density of synapses on neurites (average of 5 randomly selected fields per well, 6 wells per treatment). Results are plotted in the graphs in the right panel *P<0.05 SNK, n=6 all groups, both timepoints). Inhibition of PAR1 signaling also accelerated synaptogenesis in primary mouse cortical neurons (FIG. 13). Murine neurons were cultured in vitro for 24 hours before addition of the PAR1 inhibitor Vorapaxar, subtherapeutic growth factor BDNF, or both. […] Synapse density was quantified by staining for Homer, a scaffold protein concentrated at the post-synaptic densities by counting puncta in ImageJ. Synapse counts were normalized by total neurite area (TUJ1+ area) to determine the density of synapses on neurites (average of 5 randomly selected fields per well, 6 wells per treatment).

[4] = test system: Murine neurons; assay: Growth of new neurites after transection (scratch) injury in vitro; format: cell-based, mouse; conditions: co-treatment with subtherapeutic BDNF, added following scratch injury (FIG. 14)
Experimental: FIG. 14 contains a series of images showing that inhibition of PAR1 signaling accelerates growth of new neurites following transection injury in vitro. Murine neurons were cultured in vitro to confluence, and then a large wound was created by mechanically scratching the center of each field. The PAR1 inhibitor Vorapaxar, subtherapeutic growth factor BDNF, or both were added following injury. […] Results are plotted in the graph in the right panel (*P<0.05 SNK, n=6 all groups). Inhibition of PAR1 signaling accelerated growth of new neurites following transection injury in vitro (FIG. 14). Murine neurons were cultured in vitro to confluence, and then a large wound was created by mechanically scratching the center of each field. The PAR1 inhibitor Vorapaxar, subtherapeutic growth factor […], or both were added following injury.

[5] = test system: primary mouse cortical neurons; assay: Neurite outgrowth under statin inhibition of cholesterol production; format: cell-based; conditions: statin-treated cultures
From the text: Neurite outgrowth was quantified by staining for TUJ1 (a cytoskeletal protein present in both axons and dendrites) and measuring TUJ1+ area (the average of 5 randomly selected fields per well, 6 wells per treatment). *P<0.05 SNK, n=6 all groups.
Neurite outgrowth was quantified by staining for TUJ1 (a cytoskeletal protein present in both axons and dendrites) and measuring TUJ1+ area (the average of 5 randomly selected fields per well, 6 wells per treatment).

[6] = test system: SH-SY5Y cells; assay: Cellular cholesterol content, amplex red colorimetric assay; format: cell-based, human; conditions: 100 nM, 72 hours (FIG. 22)
Experimental: FIG. 22 is a graph plotting human neuronal (SH-SY5Y) cells grown in the presence of the small molecule PAR1 inhibitor, Vorapaxar (“Vora,” at 100 nM) or control for 72 hours. […] Cholesterol content was quantified by the amplex red colorimetric assay. Finally, cholesterol levels were evaluated in a human neuronal cell line (SH-SY5Y cells) grown in the presence of the small molecule PAR1 inhibitor, Vorapaxar, for 72 hours.

## CCOC(=O)N[C@@H]1CC[C@@H]2[C@@H](C1)C[C@H]1C(=O)O[C@H](C)[C@H]1[C@H]2/C=C/c1ccc(-c2cccc(F)c2)cn1 [Vorapaxar]
[1]; primary cortical neurons, 100 nM, 72 hours, vs vehicle-treated controls (FIG. 3)
  HMGCS1 expression: promoted increases in HMGCS1 expression
[1]; primary murine cortical neurons, with or without co-treatment with BDNF (FIG. 15)
  expression of HMGCS1 (real-time quantitative PCR): increased the expression of HMGCS1
[2]
  production of neurites (TUJ1+ area): potentiated the effect of BDNF, significantly increasing production of neurites
[3]
  production of synaptic densities (Homer puncta normalized by TUJ1+ area): potentiated the effect of BDNF, significantly increasing production of synaptic densities
[4]
  growth of new neurites through the injury zone (TUJ1+ area in the scratch): potentiated the effect of BDNF, significantly increasing growth of new neurites through the injury zone
[5]; agent alone (FIG. 16)
  recovery of neurite production (TUJ1+ area) from statin treatment: did not result in recovery of neurite production
[5]; co-treatment of PAR1 inhibitor with subtherapeutic BDNF (FIG. 16)
  recovery of neurite production (TUJ1+ area) from statin treatment: partially rescued neurite production from statin treatment
[6]
  cellular cholesterol vs untreated cells: more than twice the amount of cellular cholesterol

B1: BDNF: subtherapeutic growth factor BDNF (protein, UniProt P23560 19-247, looked up)
Neurotrophic factor BDNF …: APMKEANIRGQGGLAYPGVRTHGTLESVNGPKAGSRGLTSLADTFEHVIEELLDEDQKVRPNEENNKDADLYTSRVMLSSQVPLEPPLLFLLEEYKNYLDAANMSMRVRRHSDPARRGELSVCDSISEWVTAADKKTAVDMSGGTVTVLEKVPVSKGQLKQYFYETKCNPMGYTKEGCRGIDKRHWNSQCRTTQSYVRALTMDSKKRIGWRFIRIDTSCVCTLTIKRGR
[5]; agent alone (FIG. 16)
  recovery of neurite production (TUJ1+ area) from statin treatment: did not result in recovery of neurite production
